From ChEMBL document CHEMBL5465560, “Selectivity Literature for EUbOPEN Chemogenomic Library” (2024)

Key:
[1] = biological target: T1, Serine/threonine-protein kinase ULK3 (Homo sapiens) (UniProt Q6PHR2); assay: Selectivity interaction (Ambit KINOMEscan and KiNATiv profiling in Jurkat cells) EUB0000090b ULK3; format: cell-based; settings: at 1 µM
T1 sequence (whole entry): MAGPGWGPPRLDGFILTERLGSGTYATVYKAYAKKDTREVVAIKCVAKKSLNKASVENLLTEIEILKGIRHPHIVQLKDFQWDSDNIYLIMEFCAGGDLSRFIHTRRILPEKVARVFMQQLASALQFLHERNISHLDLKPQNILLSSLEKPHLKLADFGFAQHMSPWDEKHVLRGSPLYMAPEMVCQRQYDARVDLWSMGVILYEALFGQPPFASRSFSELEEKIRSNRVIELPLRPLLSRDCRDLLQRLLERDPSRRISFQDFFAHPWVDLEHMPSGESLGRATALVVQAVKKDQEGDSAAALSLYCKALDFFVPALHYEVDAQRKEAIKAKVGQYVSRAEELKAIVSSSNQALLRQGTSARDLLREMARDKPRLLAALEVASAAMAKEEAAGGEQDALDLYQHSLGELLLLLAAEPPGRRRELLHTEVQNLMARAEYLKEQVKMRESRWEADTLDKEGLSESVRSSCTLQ

[2] = biological target: T2, Phosphatidylinositol 5-phosphate 4-kinase type-2 beta (Homo sapiens) (UniProt P78356); assay: Selectivity interaction (KinomeScan (DiscoverX)) EUB0000045b PIP4K2B
T2 sequence (whole entry): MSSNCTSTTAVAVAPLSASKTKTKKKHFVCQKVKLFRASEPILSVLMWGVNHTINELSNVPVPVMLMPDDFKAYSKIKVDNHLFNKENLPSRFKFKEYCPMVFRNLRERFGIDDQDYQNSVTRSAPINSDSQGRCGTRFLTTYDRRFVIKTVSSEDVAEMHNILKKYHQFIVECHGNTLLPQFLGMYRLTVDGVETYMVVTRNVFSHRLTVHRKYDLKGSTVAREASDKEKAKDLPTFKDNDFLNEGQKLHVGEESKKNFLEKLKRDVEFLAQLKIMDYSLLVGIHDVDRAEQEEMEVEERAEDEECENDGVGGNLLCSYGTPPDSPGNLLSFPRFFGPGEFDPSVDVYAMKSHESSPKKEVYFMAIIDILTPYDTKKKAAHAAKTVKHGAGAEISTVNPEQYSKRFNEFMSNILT

[3] = biological target: T3, Mitogen-activated protein kinase kinase kinase 5 (Homo sapiens) (UniProt Q99683); assay: Selectivity interaction (ActivX KiNativ screen (ex vivo kinase selectivity in human PBMCs)) EUB0001619a MAP3K5; format: cell-based; settings: PBMC, at 1 µM
T3 sequence (whole entry): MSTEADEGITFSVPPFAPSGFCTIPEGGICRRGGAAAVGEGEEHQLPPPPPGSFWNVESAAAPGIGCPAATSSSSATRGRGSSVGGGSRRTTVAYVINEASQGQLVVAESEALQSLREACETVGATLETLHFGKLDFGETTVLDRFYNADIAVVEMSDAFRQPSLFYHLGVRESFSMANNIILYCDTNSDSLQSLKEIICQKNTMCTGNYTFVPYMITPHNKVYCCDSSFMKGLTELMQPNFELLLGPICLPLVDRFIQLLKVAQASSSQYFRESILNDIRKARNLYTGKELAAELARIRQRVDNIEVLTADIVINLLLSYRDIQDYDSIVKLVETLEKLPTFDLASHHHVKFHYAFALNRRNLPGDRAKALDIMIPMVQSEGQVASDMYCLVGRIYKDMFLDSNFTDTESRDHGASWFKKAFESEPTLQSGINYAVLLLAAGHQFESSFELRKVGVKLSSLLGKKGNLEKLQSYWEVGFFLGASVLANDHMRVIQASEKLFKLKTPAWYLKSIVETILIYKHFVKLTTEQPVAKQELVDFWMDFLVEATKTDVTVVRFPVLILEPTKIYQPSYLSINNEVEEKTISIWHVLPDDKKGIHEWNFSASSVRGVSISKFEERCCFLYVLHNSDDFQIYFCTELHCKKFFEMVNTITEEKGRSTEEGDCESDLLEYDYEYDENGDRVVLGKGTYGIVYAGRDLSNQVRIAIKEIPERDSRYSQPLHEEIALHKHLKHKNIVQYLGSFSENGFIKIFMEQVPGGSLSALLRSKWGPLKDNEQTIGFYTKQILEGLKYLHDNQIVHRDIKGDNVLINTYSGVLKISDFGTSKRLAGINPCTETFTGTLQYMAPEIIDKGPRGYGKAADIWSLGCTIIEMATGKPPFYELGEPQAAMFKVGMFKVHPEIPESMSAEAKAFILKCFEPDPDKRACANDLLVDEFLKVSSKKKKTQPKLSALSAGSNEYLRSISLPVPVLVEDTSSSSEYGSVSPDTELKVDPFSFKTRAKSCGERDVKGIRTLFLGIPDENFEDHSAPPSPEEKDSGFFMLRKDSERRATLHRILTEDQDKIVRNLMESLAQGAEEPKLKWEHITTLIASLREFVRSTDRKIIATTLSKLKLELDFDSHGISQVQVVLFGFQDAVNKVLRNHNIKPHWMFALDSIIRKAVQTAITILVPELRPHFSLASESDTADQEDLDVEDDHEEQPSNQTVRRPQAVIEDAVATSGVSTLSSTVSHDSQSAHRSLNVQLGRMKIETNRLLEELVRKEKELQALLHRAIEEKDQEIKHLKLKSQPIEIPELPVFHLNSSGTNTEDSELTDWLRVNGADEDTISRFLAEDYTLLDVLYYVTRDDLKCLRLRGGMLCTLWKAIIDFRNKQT

[4] = biological target: T4, Dual specificity mitogen-activated protein kinase kinase 4 (Homo sapiens) (UniProt P45985); assay: Selectivity interaction (Upstate Kinase Profiler service (Millipore)) EUB0000056c MAP2K4; settings: at 1 µM
T4 sequence (whole entry): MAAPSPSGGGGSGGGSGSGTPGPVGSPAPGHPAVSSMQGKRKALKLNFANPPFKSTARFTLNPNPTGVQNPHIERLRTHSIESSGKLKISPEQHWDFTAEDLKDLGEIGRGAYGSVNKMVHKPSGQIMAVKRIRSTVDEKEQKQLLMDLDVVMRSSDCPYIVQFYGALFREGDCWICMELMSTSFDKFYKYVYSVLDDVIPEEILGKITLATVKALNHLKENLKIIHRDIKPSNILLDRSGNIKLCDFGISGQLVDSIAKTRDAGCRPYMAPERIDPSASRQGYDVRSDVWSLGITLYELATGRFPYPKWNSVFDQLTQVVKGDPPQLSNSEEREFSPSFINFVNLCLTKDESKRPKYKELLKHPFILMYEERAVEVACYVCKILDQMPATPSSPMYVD

CN(C)C/C=C/C(=O)Nc1ccc(C(=O)N2CCCC(Nc3ncc(Cl)c(-c4c[nH]c5ccccc45)n3)C2)cc1 (stereo not given)
% of control [1]: 87%

C=CC(=O)Nc1cc(-n2c(=O)ccc3cnc4ccc(-c5ccc(NS(C)(=O)=O)cc5)cc4c32)ccc1C
% of control ([2]; at 1 µM): 93%
% of control ([2]; at 10 µM): 63%

N#Cc1cccc(-c2c[nH]c3ncnc(N4CCOCC4)c23)c1
% of inhibition [3]: 21%

Cc1ccc(-c2ccc3c(ccc4sc5c(c43)NC[C@@H](C)NC5=O)n2)cn1
% of inhibition [4]: 19%
